From patent publication US10993983B2, “Cyclic peptide epitopes and small-molecule mimics for inducing autophagy” (TRUSTEES OF TUFTS COLLEGE, priority 2016, dated 2021)
“Also recorded” adds a separate entry of the source. Bridges are numbered along the chain shown (N, C = ends). Where no end group is shown, it is not given here. [ ]: non-standard residue; d: D form. The star is where a group is joined. cyanopropanyl = 3-cyanopropanyl N-terminal cap, N#CCCC*; Nicotinoyl = O=C(c1cccnc1)*; Hexanoyl = CCCCCC(=O)*; Bz = O=C(c1ccccc1)*

System: HeLa cells
Assay: Autophagy induction judged by p62 and LC3 immunoblots together
Assay type: cell-based
Details: HeLa cells; for autophagy induction, result in words: p62 and LC3 immunoblots; for concentration at which autophagy induction (p62 degradation and LC3 lipidation) was observed: immunoblot, 3 hour treatment
Experimental: This 10-mer sequence was substituted with various thiol-containing amino acids at various positions, and then cross-linked with various linkers as described above (FIG. 5, a and FIG. 6).
Cells were treated with peptide in OPTI-MEM (Thermo Scientific) acidified with 0.15% (v/v) 6N HCl for 3 hour. Cells were rinsed with Dulbecco's phosphate buffered saline (PBS) and lysed in lysis buffer (20 mM HEPES, 150 mM NaCl, 1 mM EDTA, 1% Triton X-100, protease inhibitor cocktail (Roche) on ice for 1 hour. Cell lysates were centrifuged at 16,000 g for 10 min at 4° C. and analyzed by SDS-PAGE and transferred to PVDF membranes. The membranes were blocked 5% non-fat dry milk (NFDM) in PBST (PBS+0.05% Tween-20) for 1 hour, then incubated overnight at 4° C. with primary antibody in 5% NFDM in PBST. The blots were washed with PBST and incubated with HRP-conjugated secondary antibodies diluted in 5% NFDM in PBST for 1 hour at room temperature. Membranes were washed with PBST and visualized with SuperSignal West Pico Chemiluminescent Substrate (Thermo Scientific). Semi-quantitative results were obtained by noting the lowest concentration at which both p62 degradation and LC3-I to LC3-II conversion were observed.
(SEQ ID NO: 16)-Sequence. […] The N-terminus was capped with an acetyl group while the C terminus was capped with a —C(O)—NH2 group. The activity reported is a summation of results from both the p62 degradation assay and the LC3 marker assay.

| Substance | autophagy induction, result in words | further results |
| --- | --- | --- |
| (acetyl)-VcNAcFHIWH (Ac-V[dC]NA[dC]FHIWH; linker 2-5 via ortho‑xylene (inferred); not fully specified (C-terminus); printed as (acetyl)-VcNAcFHIWH) [Ac-DD5-o] | almost no autophagy-inducing activity | – |
| (benzo)-VcNAcFHIWH (Bz-V[dC]NA[dC]FHIWH; linker 2-5 via ortho‑xylene (inferred); not fully specified (C-terminus); printed as (benzo)-VcNAcFHIWH) [benzo-DD5-o] | induced autophagy to a slightly lesser extent than DD5-o | concentration at which autophagy induction (p62 degradation and LC3 lipidation) was observed: 50 µM |
| (cyano)-VcNAcFHIWH (cyanopropanyl-V[dC]NA[dC]FHIWH; linker 2-5 via ortho‑xylene (inferred); not fully specified (C-terminus); printed as (cyano)-VcNAcFHIWH) [cyano-DD5-o] | induced autophagy, but to a somewhat lesser extent than DD5-o | – |
| (free amine)-VcNAcFHIWH (H-V[dC]NA[dC]FHIWH; linker 2-5 via ortho‑xylene (inferred); not fully specified (C-terminus); printed as VcNAcFHIWH) [Compound H2N-DD5-o] | almost no autophagy-inducing activity | – |
| (hexano)-VcNAcFHIWH (Hexanoyl-V[dC]NA[dC]FHIWH; linker 2-5 via ortho‑xylene (inferred); not fully specified (C-terminus); printed as (hexano)-VcNAcFHIWH) [hexano-DD5-o] | induced autophagy, but to a somewhat lesser extent than DD5-o | concentration at which autophagy induction (p62 degradation and LC3 lipidation) was observed: 50 µM |
| (hexyno)-VcNAcFHIWH (hexynoyl-V[dC]NA[dC]FHIWH; linker 2-5 via ortho‑xylene (inferred); not fully specified (C-terminus); printed as (hexyno)-VcNAcFHIWH) [hexyno-DD5-o] | induced autophagy, but to a somewhat lesser extent than DD5-o | – |
| (nicot)-VcNAcFHIWH (Nicotinoyl-V[dC]NA[dC]FHIWH; linker 2-5 via ortho‑xylene (inferred); not fully specified (C-terminus); printed as (nicot)-VcNAcFHIWH) [nicot-DD5-o] | – | autophagy induction, result in words (listed as nicotinic acid cap): showed no activity; also recorded: no activity was observed |
| (pa)-AcNAcFHIWH (pa-A[dC]NA[dC]FHIWH; linker 2-5 via ortho‑xylene (inferred)) [Val1Ala] | complete loss in activity | autophagy induction, result in words (listed as Vail): complete loss of activity |
| (pa)-VCNAcFHIWH (pa-VCNA[dC]FHIWH; linker 2-5 via ortho‑xylene (inferred)) [LD5-o] | mildly increased autophagy | – |
| (pa)-VWNATFHIWH (not fully specified (N-terminus, C-terminus); printed as (pa)-VWNATFHIWH) [pa-10mer, no linker] | barely detectable activity | concentration at which autophagy induction (p62 degradation and LC3 lipidation) was observed: 100 µM |
| (pa)-VWNATFHIWHD (not fully specified (N-terminus, C-terminus); printed as (pa)-VWNATFHIWHD) [pa-11mer, no linker] | did not increase autophagic activity; also recorded: loss of activity | – |
| (pa)-VcAAcFHIWH (pa-V[dC]AA[dC]FHIWH; linker 2-5 via ortho‑xylene (inferred)) [Asn3Ala] | milder effects on activity | – |
| (pa)-VcNACFHIWH (pa-V[dC]NACFHIWH; linker 2-5 via ortho‑xylene (inferred)) [DL5-o] | mildly increased autophagy | – |
